Measurements taken from patent publication US9321764B2, “Dihydro-pyrrolopyridinone inhibitors” (AbbVie Inc., priority 2013, dated 2016).

Columns and labels:
BRD4 (BDI_K57-E168) = biological target: T1, BRD4 (BDI_K57-E168) (Homo sapiens, UniProt O60885); assay: TR-FRET bromodomain binding assay, first bromodomain of BRD4; settings: His-tagged BD1, 100 nM Alexa647 probe; TR-FRET protocol A-E given per row
T1 construct: BD1: amino acids K57-E168; made in house
Summary of the method: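 His-tagged BRD4 BD1 (K57-E168), 8 nM, with 1 nM Eu-anti-His antibody and 100 nM Alexa647-labelled BET-inhibitor probe in pH 6.0 phosphate buffer, 2% DMSO. TR-FRET read after 1 h at room temperature. IC50 from 4-parameter fit, converted to Ki using probe Kd and concentration.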

BRD4 (BDII_E352-M457) = biological target: T2, BRD4 (BDII_E352-M457) (Homo sapiens, UniProt O60885); assay: TR-FRET bromodomain binding assay, second bromodomain of BRD4; settings: His-tagged BD2, 30 nM Alexa647 probe; TR-FRET protocol A-E given per row
T2 construct: proliferation; Protocol; made in house
Summary of the method: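 His-tagged BRD4 BD2 ([…]) competed against an Alexa647-labelled BET-inhibitor probe in TR-FRET. Buffer was 20 mM sodium phosphate pH 6.0, 50 mM NaCl, 1 mM EDTA, 0.01% Triton X-100, 1 mM DTT, with method D DMSO series of 2.5 mM–800 nM (stock range). IC50 from 4-parameter fit, Ki from probe Kd and concentration.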

[1] = tested on: breast cancer cell line MX-1; assay: MX-1 cell line proliferation assay; type: cell-based; settings: Homo sapiens, MX1, 72 h, MX-1 cells, 3-day proliferation assay, Cell Titer Glo; read-out: Cellular proliferation EC50
Experimental: The impact of compounds of the Examples on cancer cell proliferation was determined using the breast cancer cell line MX-1 (ATCC) in a 3-day proliferation assay and the data are reported in Table 1. MX-1 cells were maintained in RPMI 1640 medium (Sigma) supplemented with 10% FBS at 37° C. and an atmosphere of 5% CO2. For compound testing, MX-1 cells were plated in 96-well black bottom plates at a density of 5000 cells/well in 90 μL of culture media and incubated at 37° overnight to allow cell adhesion and spreading. Compound dilution series were prepared in DMSO via a 3-fold serial dilution from 3 mM to 0.1 μM. The DMSO dilution series were then diluted 1:100 in phosphate buffered saline, and 10 μL of the resulted solution were added to the appropriate wells of the MX-1 cell plate. The final compound concentrations in the wells were 3, 1, 0.3, 0.1, 0.03, 0.01, 0.003, 0.001, 0.0003 and 0.0001 μM.
Luminescence readings from the Cell Titer Glo assay were normalized to the DMSO treated cells and analyzed using the GraphPad Prism software with sigmoidal curve fitting to obtain EC50s. The minimum significant ratio (MSR) was determined to evaluate assay reproducibility (Eastwood et al., (2006) J Biomol Screen, 11: 253-261).

| SMILES | Ki (BRD4 (BDI_K57-E168)) | Ki (BRD4 (BDII_E352-M457)) | EC50 [1] |
| --- | --- | --- | --- |
| CC(=O)Nc1ccc(C(=O)Nc2ccc(Oc3ccc(F)cc3F)c(-c3cn(C)c4c(=O)[nH]ccc34)c2)cc1 [Example 155, 4-(acetylamino)-N-[4-(2,4-difluorophenoxy)-3-(1-methyl-7-oxo-6,7-dihydro-1H-pyrrolo[2,3-c]pyridin-3-yl)phenyl]benzamide] | 27.8 nM | 163 nM | 310 nM |
| CCS(=O)(=O)Nc1ccc(Oc2ccc(F)cc2F)c(-c2cn(C)c3c(=O)[nH]c(C(=O)NCCCO)cc23)c1 [Example 190, 3-{2-(2,4-difluorophenoxy)-5-[(ethylsulfonyl)amino]phenyl}-N-(3-hydroxypropyl)-1-methyl-7-oxo-6,7-dihydro-1H-pyrrolo[2,3-c]pyridine-5-carboxamide] | 2.01 nM | 3.85 nM | 82 nM |
| Cn1cc(-c2cc(NCc3ccc(OCc4ccccc4)cc3)ccc2Oc2ccc(F)cc2F)c2cc[nH]c(=O)c21 [Example 170, 3-[5-{[4-(benzyloxy)benzyl]amino}-2-(2,4-difluorophenoxy)phenyl]-1-methyl-1,6-dihydro-7H-pyrrolo[2,3-c]pyridin-7-one] | 216 nM | 1100 nM | 1020 nM |
| Cn1cc(-c2cc(S(C)(=O)=O)ccc2OC2CCOC2)c2cc[nH]c(=O)c21 (centres unmarked) [Example 22, 1-methyl-3-[5-(methylsulfonyl)-2-(tetrahydrofuran-3-yloxy)phenyl]-1,6-dihydro-7H-pyrrolo[2,3-c]pyridin-7-one] | 15 nM | 120 nM | 384 nM |
| Cn1cc(-c2cc(CNS(=O)(=O)Cc3ccc(C#N)cc3)ccc2Oc2ccc(F)cc2F)c2cc[nH]c(=O)c21 [Example 134, 1-(4-cyanophenyl)-N-[4-(2,4-difluorophenoxy)-3-(1-methyl-7-oxo-6,7-dihydro-1H-pyrrolo[2,3-c]pyridin-3-yl)benzyl]methanesulfonamide] | 103 nM | 518 nM | 456 nM |
| Cn1cc(-c2cc(NCc3ccc(C#N)cc3)ccc2Oc2ccc(F)cc2F)c2cc[nH]c(=O)c21 [Example 167, 4-({[4-(2,4-difluorophenoxy)-3-(1-methyl-7-oxo-6,7-dihydro-1H-pyrrolo[2,3-c]pyridin-3-yl)phenyl]amino}methyl)benzonitrile] | 32.8 nM | 156 nM | 338 nM |
| Cn1cc(-c2cc(CNS(=O)(=O)C3CCCC3)ccc2Oc2ccc(F)cc2F)c2cc[nH]c(=O)c21 [Example 137, N-[4-(2,4-difluorophenoxy)-3-(1-methyl-7-oxo-6,7-dihydro-1H-pyrrolo[2,3-c]pyridin-3-yl)benzyl]cyclopentanesulfonamide] | 106 nM | 374 nM | 872 nM |
| Cn1cc(-c2cc(S(C)(=O)=O)ccc2OCC2CCOCC2)c2cc[nH]c(=O)c21 [Example 31, 1-methyl-3-[5-(methylsulfonyl)-2-(tetrahydro-2H-pyran-4-ylmethoxy)phenyl]-1,6-dihydro-7H-pyrrolo[2,3-c]pyridin-7-one] | 21 nM | 87 nM | 398 nM |
| Cn1cc(-c2cc(CNS(=O)(=O)c3ccccc3)ccc2Oc2ccc(F)cc2F)c2cc[nH]c(=O)c21 [Example 141, N-[4-(2,4-difluorophenoxy)-3-(1-methyl-7-oxo-6,7-dihydro-1H-pyrrolo[2,3-c]pyridin-3-yl)benzyl]benzenesulfonamide] | 64 nM | 495 nM | 980 nM |
| CCS(=O)(=O)Nc1ccc(Oc2ccc(F)cc2F)c(-c2cn(C)c3c(=O)[nH]c(C(=O)NCCN4CCN(C)CC4)cc23)c1 [Example 197, 3-{2-(2,4-difluorophenoxy)-5-[(ethylsulfonyl)amino]phenyl}-1-methyl-N-[2-(4-methylpiperazin-1-yl)ethyl]-7-oxo-6,7-dihydro-1H-pyrrolo[2,3-c]pyridine-5-carboxamide] | 2.05 nM | 4.23 nM | 67.6 nM |
| Cn1cc(-c2cc(S(C)(=O)=O)ccc2Oc2ccc3ccccc3c2)c2cc[nH]c(=O)c21 [Example 63, 1-methyl-3-[5-(methylsulfonyl)-2-(naphthalen-2-yloxy)phenyl]-1,6-dihydro-7H-pyrrolo[2,3-c]pyridin-7-one] | 74 nM | 66 nM | 187 nM |
| Cc1noc(C)c1S(=O)(=O)NCc1ccc(Oc2ccc(F)cc2F)c(-c2cn(C)c3c(=O)[nH]ccc23)c1 [Example 140, N-[4-(2,4-difluorophenoxy)-3-(1-methyl-7-oxo-6,7-dihydro-1H-pyrrolo[2,3-c]pyridin-3-yl)benzyl]-3,5-dimethyl-1,2-oxazole-4-sulfonamide] | 490 nM | 817 nM | 1820 nM |
| Cn1cc(-c2cc(S(C)(=O)=O)ccc2OCC2CC2(F)F)c2cc[nH]c(=O)c21 (centres unmarked) [Example 42, 3-{2-[(2,2-difluorocyclopropyl)methoxy]-5-(methylsulfonyl)phenyl}-1-methyl-1,6-dihydro-7H-pyrrolo[2,3-c]pyridin-7-one] | 13 nM | 79 nM | 221 nM |
| CCS(=O)(=O)c1ccc(Oc2ccc(F)cc2F)c(-c2cn(C)c3c(=O)[nH]ccc23)c1 [Example 49, 3-[2-(2,4-difluorophenoxy)-5-(ethylsulfonyl)phenyl]-1-methyl-1,6-dihydro-7H-pyrrolo[2,3-c]pyridin-7-one] | 13 nM | 24 nM | 52 nM |
| Cc1cccc(OCC2CC2)c1-c1cn(C)c2c(=O)[nH]ccc12 [Example 50, 3-[2-(cyclopropylmethoxy)-6-methylphenyl]-1-methyl-1,6-dihydro-7H-pyrrolo[2,3-c]pyridin-7-one] | 1710 nM | > 4440 nM |  |
| Cc1c[nH]c(=O)c2c1c(-c1cc(S(C)(=O)=O)ccc1OCCC1CC1)cn2C [Example 124, 3-[2-(2-cyclopropylethoxy)-5-(methylsulfonyl)phenyl]-1,4-dimethyl-1,6-dihydro-7H-pyrrolo[2,3-c]pyridin-7-one] | 127 nM | 104 nM |  |
| Cn1cc(-c2cc(NC(=O)c3ccccn3)ccc2Oc2ccc(F)cc2F)c2cc[nH]c(=O)c21 [Example 150, N-[4-(2,4-difluorophenoxy)-3-(1-methyl-7-oxo-6,7-dihydro-1H-pyrrolo[2,3-c]pyridin-3-yl)phenyl]pyridine-2-carboxamide] | 22 nM | 145 nM |  |
| CCS(=O)(=O)c1ccc(Oc2ccc(C(F)(F)F)cc2)c(-c2cn(C)c3c(=O)[nH]ccc23)c1 [Example 77, 3-{5-(ethylsulfonyl)-2-[4-(trifluoromethyl)phenoxy]phenyl}-1-methyl-1,6-dihydro-7H-pyrrolo[2,3-c]pyridin-7-one] | 62 nM | 139 nM |  |
| CC(C)CCNCc1ccc(Oc2ccc(F)cc2F)c(-c2cn(C)c3c(=O)[nH]ccc23)c1 [Example 117, 3-[2-(2,4-difluorophenoxy)-5-{[(3-methylbutyl)amino]methyl}phenyl]-1-methyl-1,6-dihydro-7H-pyrrolo[2,3-c]pyridin-7-one] | 776 nM | 750 nM |  |
| COC(=O)/C=C/N(c1ccc(F)cc1)c1ccc(CS(C)(=O)=O)cc1-c1cn(C)c2c(=O)[nH]ccc12 [Example 166, methyl (2E)-3-[(4-fluorophenyl) {2-(1-methyl-7-oxo-6,7-dihydro-1H-pyrrolo[2,3-c]pyridin-3-yl)-4-[(methylsulfonyl)methyl]phenyl}amino]prop-2-enoate] | 109 nM | 47 nM |  |
| Cn1cc(-c2ccccc2NCC2CC2)c2cc[nH]c(=O)c21 [Example 142, 3-{2-[(cyclopropylmethyl)amino]phenyl}-1-methyl-1,6-dihydro-7H-pyrrolo[2,3-c]pyridin-7-one] | 870 nM | 2310 nM |  |
| Cn1cc(-c2cc(S(C)(=O)=O)ccc2OCCc2cccs2)c2cc[nH]c(=O)c21 [Example 39, 1-methyl-3-{5-(methylsulfonyl)-2-[2-(thiophen-2-yl)ethoxy]phenyl}-1,6-dihydro-7H-pyrrolo[2,3-c]pyridin-7-one] | 63 nM | 51 nM |  |
| CCS(=O)(=O)c1ccc(Oc2cncnc2)c(-c2cn(C)c3c(=O)[nH]ccc23)c1 [Example 88, 3-[5-(ethylsulfonyl)-2-(pyrimidin-5-yloxy)phenyl]-1-methyl-1,6-dihydro-7H-pyrrolo[2,3-c]pyridin-7-one] | 287 nM | 739 nM |  |
| Cn1cc(-c2cc(CS(C)(=O)=O)cnc2Cl)c2cc[nH]c(=O)c21 [Example 143, 3-{2-chloro-5-[(methylsulfonyl)methyl]pyridin-3-yl}-1-methyl-1,6-dihydro-7H-pyrrolo[2,3-c]pyridin-7-one] | 446 nM | 1680 nM |  |
